# In ChEMBL document CHEMBL4396865, “Current advances of triazole alcohols derived from fluconazole: Design, in vitro and in silico studies” (2019):
# What was measured:
# Assay type in all cases: functional
# Candida albicans [1] = assay: Antifungal activity against Candida albicans; details: Candida albicans; for MIC: read-out: MIC
# Pichia norvegensis = assay: Antifungal activity against Candida mycoderma
# Pichia kudriavzevii [2] = assay: Potency index, ratio of fluconazole MIC to test compound MIC for Candida krusei
# Candida albicans [3] = assay: Potency index, ratio of fluconazole MIC to test compound MIC for Candida albicans
# Pichia kudriavzevii [4] = assay: Antifungal activity against Candida krusei
# Nannizzia gypsea [5] = assay: Potency index, ratio of fluconazole MIC80 to test compound MIC80 for Microsporum gypseum
# Cryptococcus neoformans [6] = assay: Antifungal activity against Cryptococcus neoformans; details: Cryptococcus neoformans
# Trichophyton rubrum [7] = assay: Potency index, ratio of fluconazole MIC80 to test compound MIC80 for Trichophyton rubrum
# Candida parapsilosis [8] = assay: Antifungal activity against Candida parapsilosis; details: Lodderomyces parapsilosis
# Trichophyton rubrum [9] = assay: Antifungal activity against Trichophyton rubrum after 24 hrs
# Cryptococcus neoformans [10] = assay: Antifungal activity against Cryptococcus neoformans after 24 hrs
# Aspergillus fumigatus [11] = assay: Antifungal activity against Aspergillus fumigatus after 24 hrs
# Nannizzia gypsea [12] = assay: Antifungal activity against Microsporum gypseum after 24 hrs
# Candida albicans [13] = assay: Antifungal activity against Candida albicans ATCC SC5314 after 24 hrs; details: ATCC SC5314, 24 h
# Pichia kudriavzevii [14] = assay: Antifungal activity against Candida krusei after 24 hrs
# Candida albicans [15] = assay: Antifungal activity against Candida albicans Y0109 after 24 hrs; details: Y0109, 24 h
# Candida parapsilosis [16] = assay: Antifungal activity against Candida parapsilosis after 24 hrs; details: Lodderomyces parapsilosis
# Candida albicans [17] = assay: Antifungal activity against Candida albicans after 48 hrs by NCCLS protocol based method
# Candida parapsilosis [18] = assay: Antifungal activity against Candida parapsilosis after 48 hrs by NCCLS protocol based method; details: Lodderomyces parapsilosis
# Candida albicans [19] = assay: Antifungal activity against Candida albicans infected in Caenorhabditis elegans assessed as survival at 16 ug/ml relative to control
# Cryptococcus neoformans [20] = assay: Antifungal activity against Cryptococcus neoformans infected in Caenorhabditis elegans
# Cryptococcus neoformans [21] = assay: Potency index, ratio of fluconazole MIC to test compound MIC for Cryptococcus neoformans infected in Caenorhabditis elegans
# Candida albicans [22] = assay: Antifungal activity against fluconalzole-susceptible Candida albicans after 24 hrs
# Candida parapsilosis [23] = assay: Antifungal activity against fluconalzole-resistant Candida parapsilosis after 24 hrs; details: Lodderomyces parapsilosis
# Candida albicans [24] = assay: Antifungal activity against fluconalzole-resistant Candida albicans after 24 hrs
# Candida parapsilosis [25] = assay: Antifungal activity against fluconalzole-susceptible Candida parapsilosis after 24 hrs; details: Lodderomyces parapsilosis
# Aspergillus fumigatus [26] = assay: Antifungal activity against Aspergillus fumigatus; details: Aspergillus fumigatus
# Candida albicans [27] = assay: Antifungal activity against Candida albicans infected in Caenorhabditis elegans assessed as survival at 32 ug/ml relative to control
# Microsporum canis = assay: Antifungal activity against Microsporum canis after 24 hrs by microbroth dilution method
# Candida albicans [28] = assay: Antifungal activity against Candida albicans after 24 hrs by NCCLS protocol based method
# Kluyveromyces marxianus = assay: Antifungal activity against Candida kefyr; details: Kluyveromyces marxianus; read-out: MIC
# Nannizzia gypsea [29] = assay: Antifungal activity against Microsporum gypseum after 7 days by NCCLS protocol based method; details: 168 h
# Fonsecaea compacta = assay: Antifungal activity against Fonsecaea compacta after 24 hrs by microbroth dilution method
# Candida tropicalis [30] = assay: Antifungal activity against Candida tropicalis after 24 hrs by NCCLS protocol based method
# Candida tropicalis [31] = assay: Antifungal activity against Candida tropicalis after 24 hrs by microbroth dilution method
# Trichophyton rubrum [32] = assay: Antifungal activity against Trichophyton rubrum after 7 days by NCCLS protocol based method; details: 168 h
# Trichophyton rubrum [33] = assay: Antifungal activity against Trichophyton rubrum; details: Trichophyton rubrum; read-out: MIC
# Trichophyton rubrum [34] = assay: Antifungal activity against Trichophyton rubrum after 24 hrs by microbroth dilution method
# Candida tropicalis [35] = assay: Antifungal activity against Candida tropicalis; details: Candida tropicalis; read-out: MIC
# Cryptococcus neoformans [36] = assay: Antifungal activity against Cryptococcus neoformans after 72 hrs by NCCLS protocol based method
# Aspergillus fumigatus [37] = assay: Antifungal activity against Aspergillus fumigatus after 24 hrs by microbroth dilution method
structure (smiles),measurement,setting,value
O=C(O)c1cn(C2CC2)c2c(Cl)c(N3CCC(NCC(O)(Cn4cncn4)c4ccc(F)cc4)C3)c(F)cc2c1=O (centres undefined),MIC,Candida albicans [1],0.25 to 2 µg/mL
same,MIC,Pichia norvegensis,0.25 to 2 µg/mL
O=C(O)c1cn(C2CC2)c2c(Cl)c(N3CCC(NCC(O)(Cn4cncn4)c4ccc(Cl)c(Cl)c4)C3)c(F)cc2c1=O (centres undefined),MIC,Candida albicans [1],0.25 to 2 µg/mL
same,MIC,Pichia norvegensis,0.25 to 2 µg/mL
O=C(O)c1cn(C2CC2)c2c(Cl)c(N3CCC(NCC(O)(Cn4cncn4)c4ccc(F)c(F)c4)C3)c(F)cc2c1=O (centres undefined),MIC,Candida albicans [1],0.25 to 2 µg/mL
same,MIC,Pichia norvegensis,0.25 to 2 µg/mL
O=C(O)c1cn(C2CC2)c2c(Cl)c(N3CCC(NCC(O)(Cn4cncn4)c4ccc(F)cc4F)C3)c(F)cc2c1=O (centres undefined),MIC,Candida albicans [1],0.25 to 2 µg/mL
same,MIC,Pichia norvegensis,0.25 to 2 µg/mL
C#CCN(Cc1ccc(F)cc1F)CC(O)(Cn1cncn1)c1ccc(F)cc1F (centres undefined),Ratio,Pichia kudriavzevii [2],64
same,Ratio,Candida albicans [3],515
same,MIC80,Candida albicans [1],0.00097 µg/mL
same,MIC80,Pichia kudriavzevii [4],0.00097 µg/mL
OC(CN1CCN(Cc2cn(Cc3ccc(Br)cc3)nn2)CC1)(Cn1cncn1)c1ccc(F)cc1F (centres undefined),Ratio,Nannizzia gypsea [5],4 - 128
same,MIC80,Cryptococcus neoformans [6],≤ 0.5 µg/mL
same,Ratio,Trichophyton rubrum [7],4 - 128
same,MIC80,Candida parapsilosis [8],≤ 0.5 µg/mL
same,MIC80,Candida albicans [1],≤ 0.5 µg/mL
OC(Cc1cn(CCOCc2ccc(Br)cc2)nn1)(Cn1cncn1)c1ccc(F)cc1F (centres undefined),MIC,Trichophyton rubrum [9],0.0156 to 0.0625 µg/mL
same,MIC,Cryptococcus neoformans [10],0.0156 to 0.0625 µg/mL
same,MIC,Aspergillus fumigatus [11],0.0156 to 0.0625 µg/mL
same,MIC,Nannizzia gypsea [12],0.0156 to 0.0625 µg/mL
same,MIC,Candida albicans [13],0.0156 to 0.0625 µg/mL
same,MIC,Pichia kudriavzevii [14],0.0156 to 0.0625 µg/mL
same,MIC,Candida albicans [15],0.0156 to 0.0625 µg/mL
same,MIC,Candida parapsilosis [16],0.0156 to 0.0625 µg/mL
COC(=O)CC[C@@H](C)[C@H]1CC[C@H]2[C@@H]3[C@H](O)C[C@@H]4C[C@@H](n5cc(CC(O)(Cn6cncn6)c6ccc(F)cc6F)nn5)CC[C@]4(C)[C@H]3C[C@H](O)[C@]12C (some centres undefined),MIC,Candida albicans [17],3.12 to 6.25 µg/mL
same,MIC,Candida parapsilosis [18],3.12 to 6.25 µg/mL
OC(Cn1cncn1)(Cn1cc(C2CC2)nn1)c1ccc(F)cc1F (centres undefined),survival at 16 µg/mL,Candida albicans [19],70%
same,MIC,Candida albicans [1],0.125 µg/mL
C[C@H](CCCn1cc(CC(O)(Cn2cncn2)c2ccc(F)cc2F)nn1)[C@H]1CC[C@H]2[C@@H]3[C@H](O)C[C@@H]4C[C@H](O)CC[C@]4(C)[C@H]3C[C@H](O)[C@]12C (some centres undefined),MIC,Candida albicans [17],3.12 to 6.25 µg/mL
same,MIC,Candida parapsilosis [18],3.12 to 6.25 µg/mL
COC(=O)CC[C@@H](C)[C@H]1CC[C@H]2[C@@H]3CC[C@@H]4C[C@@H](n5cc(CC(O)(Cn6cncn6)c6ccc(F)cc6F)nn5)CC[C@]4(C)[C@H]3C[C@H](O)[C@]12C (some centres undefined),MIC,Candida albicans [17],3.12 to 6.25 µg/mL
same,MIC,Candida parapsilosis [18],3.12 to 6.25 µg/mL
C[C@H](CCCn1cc(CC(O)(Cn2cncn2)c2ccc(F)cc2F)nn1)[C@H]1CC[C@H]2[C@@H]3CC[C@@H]4C[C@H](O)CC[C@]4(C)[C@H]3C[C@H](O)[C@]12C (some centres undefined),MIC,Candida albicans [17],3.12 to 6.25 µg/mL
same,MIC,Candida parapsilosis [18],3.12 to 6.25 µg/mL
OC(Cc1cn(C2CCCC2)nn1)(Cn1cncn1)c1ccc(F)cc1F (centres undefined),MIC,Cryptococcus neoformans [20],0.25 µg/mL
same,Ratio,Cryptococcus neoformans [21],8
OC(Cn1cncn1)(Cn1cnc(SCc2cccc(Cl)c2)n1)c1ccc(F)cc1F (centres undefined),MIC,Candida albicans [22],0.063 to 1 µg/mL
same,MIC,Candida parapsilosis [23],0.125 to 16 µg/mL
same,MIC,Candida albicans [24],0.125 to 16 µg/mL
same,MIC,Candida parapsilosis [25],0.063 to 1 µg/mL
OC(Cn1cncn1)(Cn1cncn1)c1ccc(F)cc1F [FLUCONAZOLE],MIC,Candida albicans [22],0.5 to 4 µg/mL
same,MIC80,Aspergillus fumigatus [26],> 200 µM
same,survival at 32 µg/mL,Candida albicans [27],60%
same,MIC80,Microsporum canis,≥ 0.5 µg/mL
same,MIC,Trichophyton rubrum [9],≥ 64 µg/mL
same,MIC,Candida albicans [28],0.5 µg/mL
same,MIC,Cryptococcus neoformans [10],≥ 64 µg/mL
same,MIC,Cryptococcus neoformans [6]; read-out: MIC,1 µg/mL
same,MIC,Kluyveromyces marxianus,0.125 to 8 µg/mL
same,MIC,Nannizzia gypsea [29],0.5 µg/mL
same,MIC80,Fonsecaea compacta,≥ 0.5 µg/mL
same,MIC,Candida tropicalis [30],0.5 µg/mL
same,MIC80,Candida tropicalis [31],≥ 0.5 µg/mL
same,MIC,Aspergillus fumigatus [11],≥ 64 µg/mL
same,MIC,Candida parapsilosis [8]; read-out: MIC,1 µg/mL
same,MIC,Candida albicans [1],0.5 µg/mL
same,MIC,Nannizzia gypsea [12],≥ 64 µg/mL
same,MIC,Candida albicans [13],≥ 64 µg/mL
same,MIC,Trichophyton rubrum [32],0.5 µg/mL
same,MIC,Trichophyton rubrum [33],0.125 to 8 µg/mL
same,MIC80,Trichophyton rubrum [34],≥ 0.5 µg/mL
same,MIC,Candida tropicalis [35],0.125 to 8 µg/mL
same,MIC,Pichia kudriavzevii [14],≥ 64 µg/mL
same,MIC,Cryptococcus neoformans [36],0.5 µg/mL
same,MIC,Candida parapsilosis [25],0.5 to 4 µg/mL
same,MIC,Candida albicans [15],≥ 64 µg/mL
same,MIC80,Aspergillus fumigatus [37],≥ 0.5 µg/mL
same,MIC,Candida parapsilosis [16],≥ 64 µg/mL
